Data as given in PMC9926234, “Iterative computational design and crystallographic screening identifies potent inhibitors targeting the Nsp3 macrodomain of SARS-CoV-2” (Proceedings of the National Academy of Sciences of the …, 2023).
Values joined by “and” are separate entries in the source; they are usually repeats but may differ in a detail not shown here. Equal entries are not always repeated. Where two headings read alike, the source gives them in different places.

Legend:
Type in all cases: binding
SARS-CoV-2 NSP3 Mac1 [1] = target: T1, SARS-CoV-2 NSP3 Mac1 (Severe acute respiratory syndrome coronavirus 2, UniProt P0DTD1); experiment: biochemical; details: for Ki: Ki estimation from HTRF-derived IC50, Cheng-Prusoff, peptide 400nM, Kd 2.68µM
SARS-CoV-2 NSP3 Mac1 [2] = target: T1, SARS-CoV-2 NSP3 Mac1; details: for Refined occupancy: ligand occupancy after refinement (phenix.refine)
SARS-CoV-2 NSP3 Mac1 [3] = target: T1, SARS-CoV-2 NSP3 Mac1; design: contains a conserved macrodomain enzyme (Mac1); details: for Spearman est (compound concentration vs apparent Tm): DSF dose responsiveness, 1 µM nsp3 mac1, adj p given
Procedure, shortened: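 ΔTma values are thermal shifts relative to a co-located DMSO-only control, read with 5 µM Fluorescent Yellow dye. Each compound was tested in triplicate over seven concentrations (two-fold steps, top 1,000 or 100 μM). Spearman correlation of concentration versus ΔTma tested whether the shift was dose-responsive.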

[4] = HTRF ADPr-peptide displacement from SARS-CoV-2 Mac1, read-out: IC50
[5] = HTRF, several values in a cell are separate determinations, read-out: IC50
[6] = PanDDA 1-BDC (background density correction) of the event, crystal soak 100 mM, PanDDA run dmso_34
[7] = PanDDA event map, 1 minus background density correction, crystal soaking of Mac1
[8] = crystal soak, compound concentration 100 mM, PanDDA run dmso_34, series docking_lead-like_1
[9] = ligand modeled in the crystal structure, crystal soak 100 mM, PanDDA run dmso_34
[10] = overall hit flag: binding in crystallographic soaking or the HTRF-based binding assay
[11] = maximal thermal upshift vs DMSO control
[12] = ligand modeled in structure, crystal soak, Compound_concentration 100 mM
[13] = PanDDA 1-BDC value of the event, crystal soak, compound concentration 100 mM, per dataset
[14] = crystal soak, compound concentration 100 mM, per dataset
[15] = ligand modeled from this dataset, compound concentration 100 mM, Echo dispense volume 40 or 80 nl
[16] = true hit = binding in crystallographic soaking or the HTRF-based binding assay
[17] = PanDDA event map background density correction, crystal soak, Compound_concentration 100 mM, PanDDA run dmso_34
[18] = crystal soak, Compound_concentration 100 mM, Echo dispense 40 nl, PanDDA run dmso_34
[19] = ligand modeled in crystal structure, crystal soak, Compound_concentration 100 mM, PanDDA run dmso_34
[20] = ligand modeled in the crystal structure, crystal soak, compound concentration 100 mM, per dataset

| SMILES | IC50 (SARS-CoV-2 NSP3 Mac1 [1]; [4]) | IC50 (SARS-CoV-2 NSP3 Mac1 [1]; [5]) | Ki (SARS-CoV-2 NSP3 Mac1 [1]; read-out: Ki***) | 1-BDC (SARS-CoV-2 NSP3 Mac1 [2]; [7]) | Refined occupancy (SARS-CoV-2 NSP3 Mac1 [2]; crystal soaking of Mac1) | HIT* (SARS-CoV-2 NSP3 Mac1 [2]; [10]) | Spearman est (compound concentration vs apparent Tm) (SARS-CoV-2 NSP3 Mac1 [3]) | DSF max dTma (SARS-CoV-2 NSP3 Mac1 [3]; [11]) | 1-BDC (SARS-CoV-2 NSP3 Mac1 [2]; [13]) | PanDDA hit? (SARS-CoV-2 NSP3 Mac1 [2]; [14]) | Modeled? (SARS-CoV-2 NSP3 Mac1 [2]; [15]) | HIT* (SARS-CoV-2 NSP3 Mac1 [2]; [16]) | DSF max dTma (SARS-CoV-2 NSP3 Mac1 [3]; maximal thermal upshift) | further results |
| --- | --- | --- | --- | --- | --- | --- | --- | --- | --- | --- | --- | --- | --- | --- |
| O=c1[nH]nc(C2CCCN(c3ncnc4[nH]ccc34)C2)o1 (stereo not shown) [Z7655] | 279 µM | 279 µM | 243 µM | 0.09 | 18 | Y | 0.22 | 0.6 °C | – | – | – | – | – | 1-BDC (SARS-CoV-2 NSP3 Mac1 [2]; [6]): 0.09; PanDDA hit? (SARS-CoV-2 NSP3 Mac1 [2]; [8]): TRUE; Modeled? (SARS-CoV-2 NSP3 Mac1 [2]; [9]): TRUE |
| C[C@@H]1CN(c2ncnc3[nH]c4ccccc4c23)C[C@@H](CO)O1 [Z6923] | 416 µM and ≤ 90 µM | 416 µM | 362 µM | 0.1 | 20 | Y | 0.28 | 0.46 °C | – | – | – | – | – | Modeled? (SARS-CoV-2 NSP3 Mac1 [2]; [12]): TRUE |
| O=C(Nc1ccc(C(=O)NCc2c(C(=O)O)oc3ccccc23)cc1)NC1CC1 [Z8539_0026] | 84 µM | – | 72.9 µM | 0.33 | 66 | – | 0.37 | – | 0.3 | TRUE | TRUE | Y | 3.52 ˚C | IC50 (SARS-CoV-2 NSP3 Mac1 [1]; HTRF, read-out: IC50): 83.8 µM |
| O=S1(=O)CCC2(CCCN(c3ncnc4[nH]ccc34)C2)C1 (stereo not shown) [Z4305] | 170 µM | 170 µM | 148 µM | 0.38 | 76 | Y | 0.77 | 1.26 °C | – | – | – | – | – | 1-BDC (SARS-CoV-2 NSP3 Mac1 [2]; [6]): 0.38; PanDDA hit? (SARS-CoV-2 NSP3 Mac1 [2]; [8]): TRUE; Modeled? (SARS-CoV-2 NSP3 Mac1 [2]; [9]): TRUE |
| O=C(O)CC1CN(c2ncnc3[nH]ccc23)CCO1 (stereo not shown) [Z9572] | 227 µM and 234 µM | 227 µM | 197 µM | 0.09 | 18 | Y | 0.62 | 0.66 °C | – | – | – | – | – | Modeled? (SARS-CoV-2 NSP3 Mac1 [2]; [12]): TRUE |
| O=C(Nc1ccc(C(=O)NC2c3ccccc3CC2C(=O)O)cc1)NC1CC1 (stereo not shown) [8539_0029] | – | – | 4.2 µM | 0.11 | 22 | – | 0.73 | – | 0.13 | TRUE | TRUE | Y | 3.66 ˚C | – |
| CC(O)CNc1cc(N2CC3(CCC3)C(F)(C(=O)O)C2)ncn1 (stereo not shown) [Z5722] | 464 µM and 460 µM | – | 404 µM | 0.18 | 36 | Y | 0.59 | 0.96 °C | – | – | – | – | – | 1-BDC (SARS-CoV-2 NSP3 Mac1 [2]; [17]): 0.18; PanDDA hit? (SARS-CoV-2 NSP3 Mac1 [2]; [18]): TRUE; Modeled? (SARS-CoV-2 NSP3 Mac1 [2]; [19]): TRUE |
| O=C(Nc1ccc(C(=O)NCc2c(C(=O)O)sc3ccccc23)cc1)NC1CC1 [Z8539_0025] | 20 µM | – | 17.8 µM | 0.24 | 48 | – | 0.17 | – | 0.24 | TRUE | TRUE | Y | 0.91 ˚C | IC50 (SARS-CoV-2 NSP3 Mac1 [1]; HTRF, read-out: IC50): 20.4 µM |
| CCc1c[nH]c2ncnc(N3CCCC(S(C)(=O)=O)C3)c12 (stereo not shown) [Z1027] | 126 µM | 126 µM | 110 µM | 0.17 | 34 | Y | 0.96 | 1.03 °C | – | – | – | – | – | 1-BDC (SARS-CoV-2 NSP3 Mac1 [2]; [6]): 0.17; PanDDA hit? (SARS-CoV-2 NSP3 Mac1 [2]; [8]): TRUE; Modeled? (SARS-CoV-2 NSP3 Mac1 [2]; [9]): TRUE |
| O=C(Nc1ccc(C(=O)NCc2c(C(=O)O)[nH]c3ccccc23)cc1)NC1CC1 [Z8539_0027] | – | – | – | 0.23 | 46 | – | 0.7 | – | 0.29 | TRUE | TRUE | Y | 6.22 ˚C | IC50 (SARS-CoV-2 NSP3 Mac1 [1]; IC50, HTRF ADPr-peptide displacement from SARS-CoV-2 Mac1): 7.6 µM; Ki (SARS-CoV-2 NSP3 Mac1 [1]; Ki***): 6.6 µM |
| O=C(NC1c2cccc(O)c2CC1C(=O)O)c1cnc2c(c1)CCCN2 (stereo not shown) [8539_0006] | – | – | 146 µM | 0.1 | 20 | – | −0.43 | – | 0.1 | TRUE | – | Y | 0 ˚C | Modeled? (SARS-CoV-2 NSP3 Mac1 [2]; [20]): TRUE |
| COC(=O)Nc1ccc(C(=O)NC2c3ccccc3CC2C(=O)O)cc1 (stereo not shown) [Z8531] | > 250 µM | – | – | 0.04 | 8 | Y | 0.72 | 0.6 °C | 0.04 | TRUE | – | – | – | Modeled? (SARS-CoV-2 NSP3 Mac1 [2]; [20]): TRUE |
| Cc1c[nH]c2ncc(C(=O)N(C)c3nnn[nH]3)cc12 [R7335] | – | – | 36.7 µM | – | 40 | – | 0.73 | – | – | – | – | Y | 1.16 ˚C | IC50 (SARS-CoV-2 NSP3 Mac1 [1]; HTRF, read-out: IC50): 42.2 µM; 1-BDC (SARS-CoV-2 NSP3 Mac1 [2]; PanDDA event map, 1-BDC of the hit dataset, crystal soak, compound concentration 100 mM): 0.26; 1-BDC (PanDDA) (SARS-CoV-2 NSP3 Mac1 [2]; [7]): 0.2; Modeled? (SARS-CoV-2 NSP3 Mac1 [2]; ligand modeled from this dataset, compound concentration 100 mM): TRUE |
| O=C(OCCN1CCOC1=O)c1ncnc2[nH]ccc12 [Z8207] | 60 µM | – | 52.3 µM | 0.38 | 76 | – | 0.99 | – | – | – | – | Y | 2.51 ˚C | IC50 (SARS-CoV-2 NSP3 Mac1 [1]; HTRF, read-out: IC50): 60.1 µM |
| O=C(NC1c2cccc(O)c2CC1C(=O)O)c1cnc(NC2CCOCC2)cn1 (stereo not shown) [8539_0007] | – | – | 5.6 µM | 0.19 | 60 | – | 0.24 | – | 0.2 | TRUE | TRUE | Y | 3.42 ˚C | – |
| OC[C@H]1CCCN(c2ncnc3[nH]c4cc(F)ccc4c23)C1 [Z7873] | ≤ 90 µM and 90 µM | 90.3 µM | 78.6 µM | 0.06 | 12 | Y | 0.95 | 1.5 °C | – | – | – | – | – | 1-BDC (SARS-CoV-2 NSP3 Mac1 [2]; [17]): 0.06; PanDDA hit? (SARS-CoV-2 NSP3 Mac1 [2]; [18]): TRUE; Modeled? (SARS-CoV-2 NSP3 Mac1 [2]; [19]): TRUE |
